Assay results from ChEMBL document CHEMBL1201862, “PubChem BioAssay data set” (2004).
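Compound exposure: 48 hours, 5 concentrations, 96-well plates. At the GI50, growth is halved.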 The source made the active and inactive calls. No stated cut-off is given here; in the data, active = GI50 up to about 1.1 µM and inactive = higher.

Tests used:
Experiment in all cases: NCI-60 cell line screen, 48 h
[1] = tested on: OVCAR-5
[2] = tested on: HCT-15
[3] = tested on: EKVX
[4] = tested on: SN12C
[5] = tested on: HCT-116
[6] = tested on: UACC-257
[7] = tested on: MCF7
[8] = tested on: NCI-H522
[9] = tested on: UACC-62
[10] = tested on: OVCAR-3
[11] = tested on: NCI-H23
[12] = tested on: IGROV-1
[13] = tested on: MDA-MB-231
[14] = tested on: CAKI-1
[15] = tested on: SR
[16] = tested on: KM12
[17] = tested on: BT-549
[18] = tested on: LOX IMVI
[19] = tested on: SK-OV-3
[20] = tested on: 786-0

| SMILES | GI50 [1] | GI50 [2] [µM] | GI50 [3] | GI50 [4] | GI50 [5] | GI50 [6] | GI50 [7] | GI50 [8] | GI50 [9] | GI50 [10] | GI50 [11] | GI50 [12] | GI50 [13] | GI50 [14] | GI50 [15] | GI50 [16] | GI50 [17] | GI50 [18] | GI50 [19] | GI50 [20] |
| --- | --- | --- | --- | --- | --- | --- | --- | --- | --- | --- | --- | --- | --- | --- | --- | --- | --- | --- | --- | --- |
| Oc1ccc[nH]c1=[Se] | 57.1 µM (inactive) | 44.4 | 25.8 µM (inactive) | 48.2 µM (inactive) | 33.9 µM (inactive) | > 100 µM (inactive) | 65.5 µM (inactive) | 29.6 µM (inactive) | > 100 µM (inactive) | > 100 µM (inactive) | 46.2 µM (inactive) | 66.7 µM (inactive) | > 100 µM (inactive) | 69.7 µM (inactive) | 36.3 µM (inactive) | 45.5 µM (inactive) | 55.1 µM (inactive) | 64.6 µM (inactive) | 87.1 µM (inactive) | 16 µM (inactive) |
| CC1=C(CO)C(=O)O[C@@H]([C@@H](CO)[C@H]2CCC3C4C[C@@H](O)[C@@]5(O)CC=CC(=O)[C@]5(C)C4CC[C@@]32C)C1 (stereo not given in full) | 83.9 µM (inactive) | 32 | > 100 µM (inactive) | 55.2 µM (inactive) | 37.2 µM (inactive) | 58.6 µM (inactive) | 50 µM (inactive) | 39.2 µM (inactive) | 47 µM (inactive) | 22 µM (inactive) | 67.9 µM (inactive) | > 100 µM (inactive) | 59.2 µM (inactive) | > 100 µM (inactive) | 34.9 µM (inactive) | 43.3 µM (inactive) | 26.4 µM (inactive) | 38.5 µM (inactive) | > 100 µM (inactive) | 28.6 µM (inactive) |
| O=C1N[C@H]2c3c(Cl)sc(Cl)c3C(=O)[C@H]2O1 | 22.1 µM (inactive) | 2.38 | 12.3 µM (inactive) | 8.71 µM (inactive) | 3.64 µM (inactive) | 16.8 µM (inactive) | 39.8 µM (inactive) | 1.68 µM (inactive) | 19.1 µM (inactive) | 17.3 µM (inactive) | 10.5 µM (inactive) | 3.55 µM (inactive) | 25.6 µM (inactive) | 17.8 µM (inactive) | 2.09 µM (inactive) | 39.1 µM (inactive) | 22.3 µM (inactive) | 3.61 µM (inactive) | 23.1 µM (inactive) | 20.2 µM (inactive) |
| CS(=O)(=O)c1nc(-c2cc3c(c(S(C)(=O)=O)n2)CCCC3)cc2c1CCCC2 | > 100 µM (inactive) | > 100 | > 70.1 µM (inactive) | > 100 µM (inactive) | > 100 µM (inactive) | > 100 µM (inactive) | > 100 µM (inactive) | > 39.8 µM (inactive) | > 38.4 µM (inactive) | > 100 µM (inactive) | > 63 µM (inactive) | > 21.8 µM (inactive) | 56.5 µM (inactive) | > 39.9 µM (inactive) | > 100 µM (inactive) | > 100 µM (inactive) | > 43.2 µM (inactive) | > 62.4 µM (inactive) | > 35.1 µM (inactive) | 41 µM (inactive) |
| COc1ccc2c(c1OC)C[C@@H]1c3c(cc4c(c3-2)OCO4)CCN1C | 59 µM (inactive) | 22.6 | 20.7 µM (inactive) | 42 µM (inactive) | 20.7 µM (inactive) | 20 µM (inactive) | 16.6 µM (inactive) | 19.9 µM (inactive) | 15.2 µM (inactive) | 41.1 µM (inactive) | 50.1 µM (inactive) | 25.4 µM (inactive) | 33.7 µM (inactive) | 31.2 µM (inactive) | 31.5 µM (inactive) | 28.8 µM (inactive) | 23.8 µM (inactive) | 15.3 µM (inactive) | 23.3 µM (inactive) | 24.2 µM (inactive) |
